PubChem BioAssay (NCI)
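At the GI50, growth is halved. TGI marks complete inhibition of growth.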

Columns and labels:
Experiment in all cases: NCI tumour cell line growth inhibition, 384-well format
OVCAR-5 ovarian = test system: OVCAR-5 ovarian
TK-10 renal = test system: TK-10 renal
MCF7 breast = test system: MCF7 breast
SK-MEL-28 melanoma = test system: SK-MEL-28 melanoma
DU-145 prostate = test system: DU-145 prostate
MDA-MB-231 breast = test system: MDA-MB-231 breast
NCI-H522 lung = test system: NCI-H522 lung
HCC-2998 colon = test system: HCC-2998 colon
M14 melanoma = test system: M14 melanoma
SF-295 CNS = test system: SF-295 CNS
LOX IMVI melanoma = test system: LOX IMVI melanoma
NCI-H460 NSCLC = test system: NCI-H460 NSCLC
OVCAR-4 ovarian = test system: OVCAR-4 ovarian
OVCAR-8 ovarian = test system: OVCAR-8 ovarian
NCI-H226 lung = test system: NCI-H226 lung
ACHN renal = test system: ACHN renal
NCI-H322M lung = test system: NCI-H322M lung
HOP-92 NSCLC = test system: HOP-92 NSCLC
HS 578T breast = test system: HS 578T breast
KM12 colon = test system: KM12 colon
RXF 393 renal = test system: RXF 393 renal
HOP-62 NSCLC = test system: HOP-62 NSCLC
BT-549 breast = test system: BT-549 breast
U251 glioblastoma = test system: U251 glioblastoma
SNB-19 CNS = test system: SNB-19 CNS
HT29 colon = test system: HT29 colon
HCT-15 colon = test system: HCT-15 colon
SK-OV-3 ovarian = test system: SK-OV-3 ovarian
HCT-116 colon = test system: HCT-116 colon
A498 renal = test system: A498 renal
A549 NSCLC = test system: A549 NSCLC
SK-MEL-5 melanoma = test system: SK-MEL-5 melanoma
MOLT-4 leukemia = test system: MOLT-4 leukemia
EKVX NSCLC = test system: EKVX NSCLC
UACC-257 melanoma = test system: UACC-257 melanoma
RPMI-8226 leukemia = test system: RPMI-8226 leukemia
OVCAR-3 ovarian = test system: OVCAR-3 ovarian
NCI-H23 lung = test system: NCI-H23 lung
CAKI-1 renal = test system: CAKI-1 renal
SN12C renal = test system: SN12C renal
MALME-3M melanoma = test system: MALME-3M melanoma
SR leukemia = test system: SR leukemia
COLO 205 colon = test system: COLO 205 colon
UACC-62 melanoma = test system: UACC-62 melanoma
T-47D breast = test system: T-47D breast
SF-268 CNS = test system: SF-268 CNS
MDA-MB-435 melanoma = test system: MDA-MB-435 melanoma
SNB-75 CNS = test system: SNB-75 CNS
PC-3 prostate = test system: PC-3 prostate
SF-539 CNS = test system: SF-539 CNS
NCI/ADR-RES ovarian = test system: NCI/ADR-RES ovarian
MDA-MB-468 breast = test system: MDA-MB-468 breast
HL-60(TB) leukemia = test system: HL-60(TB) leukemia
IGROV1 ovarian = test system: IGROV1 ovarian

`CN(C)Cc1c(C(=O)NCCOc2ccc(C(=O)NO)cc2)oc2ccccc12` was tested, and the GI50 (OVCAR-5 ovarian) was 0.0577 µM, the TGI (OVCAR-5 ovarian) was 0.212 µM and the GI50 (TK-10 renal) was 0.184 µM. The TGI (TK-10 renal) was 0.475 µM, the GI50 (MCF7 breast) was 0.133 µM and the TGI (MCF7 breast) was 0.51 µM. The GI50 (SK-MEL-28 melanoma) was 0.171 µM, the TGI (SK-MEL-28 melanoma) was 0.561 µM and the GI50 (DU-145 prostate) was 0.118 µM. For the same compound, the TGI (DU-145 prostate) was 0.32 µM, the GI50 (MDA-MB-231 breast) was 0.248 µM and the TGI (MDA-MB-231 breast) was 0.811 µM. For the same compound, the GI50 (NCI-H522 lung) was 0.0713 µM, the TGI (NCI-H522 lung) was 0.571 µM and the GI50 (HCC-2998 colon) was 0.109 µM. It also gave a TGI (HCC-2998 colon) of 0.362 µM, a GI50 (M14 melanoma) of 0.25 µM and a TGI (M14 melanoma) of 1.08 µM. The GI50 (SF-295 CNS) was 0.161 µM, the TGI (SF-295 CNS) was 0.335 µM and the GI50 (LOX IMVI melanoma) was 0.17 µM. For the same compound, the TGI (LOX IMVI melanoma) was 0.32 µM, the GI50 (NCI-H460 NSCLC) was 0.135 µM and the TGI (NCI-H460 NSCLC) was 1.04 µM. It also gave a GI50 (OVCAR-4 ovarian) of 0.213 µM, a TGI (OVCAR-4 ovarian) of 0.495 µM and a GI50 (OVCAR-8 ovarian) of 0.0469 µM. It also gave a TGI (OVCAR-8 ovarian) of 1.13 µM, a GI50 (NCI-H226 lung) of 0.376 µM and a TGI (NCI-H226 lung) of 1.6 µM. The GI50 (ACHN renal) was 0.221 µM, the TGI (ACHN renal) was 0.578 µM and the GI50 (NCI-H322M lung) was 0.18 µM. For the same compound, the TGI (NCI-H322M lung) was 0.713 µM, the GI50 (HOP-92 NSCLC) was 0.31 µM and the TGI (HOP-92 NSCLC) was 1.33 µM. For the same compound, the GI50 (HS 578T breast) was 0.145 µM, the TGI (HS 578T breast) was 0.385 µM and the GI50 (KM12 colon) was 0.311 µM. For the same compound, the TGI (KM12 colon) was 1.7 µM, the GI50 (RXF 393 renal) was 0.291 µM and the TGI (RXF 393 renal) was 1.13 µM. It also gave a GI50 (HOP-62 NSCLC) of 0.17 µM, a TGI (HOP-62 NSCLC) of 0.69 µM and a GI50 (BT-549 breast) of 0.264 µM. For the same compound, the TGI (BT-549 breast) was 1.35 µM, the GI50 (U251 glioblastoma) was 0.155 µM and the TGI (U251 glioblastoma) was 0.332 µM. It also gave a GI50 (SNB-19 CNS) of 0.322 µM, a TGI (SNB-19 CNS) of 1.12 µM and a GI50 (HT29 colon) of 0.219 µM. It also gave a TGI (HT29 colon) of 0.943 µM, a GI50 (HCT-15 colon) of 0.48 µM and a TGI (HCT-15 colon) of 2.01 µM. For the same compound, the GI50 (SK-OV-3 ovarian) was 0.175 µM, the TGI (SK-OV-3 ovarian) was 0.745 µM and the GI50 (HCT-116 colon) was 0.0923 µM. It also gave a TGI (HCT-116 colon) of 0.479 µM, a GI50 (A498 renal) of 0.187 µM and a TGI (A498 renal) of 0.658 µM. It also gave a GI50 (A549 NSCLC) of 0.313 µM, a TGI (A549 NSCLC) of 1.24 µM and a GI50 (SK-MEL-5 melanoma) of 0.132 µM. The TGI (SK-MEL-5 melanoma) was 0.278 µM, the GI50 (MOLT-4 leukemia) was 0.0422 µM and the TGI (MOLT-4 leukemia) was 0.143 µM. For the same compound, the GI50 (EKVX NSCLC) was 0.403 µM, the TGI (EKVX NSCLC) was 3.11 µM and the GI50 (UACC-257 melanoma) was 0.0432 µM. For the same compound, the TGI (UACC-257 melanoma) was 0.194 µM, the GI50 (RPMI-8226 leukemia) was 0.0119 µM and the TGI (RPMI-8226 leukemia) was 0.0262 µM. It also gave a GI50 (OVCAR-3 ovarian) of 0.176 µM, a TGI (OVCAR-3 ovarian) of 0.626 µM and a GI50 (NCI-H23 lung) of 0.267 µM. It also gave a TGI (NCI-H23 lung) of 1.37 µM, a GI50 (CAKI-1 renal) of 0.316 µM and a TGI (CAKI-1 renal) of 1.1 µM. For the same compound, the GI50 (SN12C renal) was 0.13 µM, the TGI (SN12C renal) was 0.392 µM and the GI50 (MALME-3M melanoma) was 0.0876 µM. The TGI (MALME-3M melanoma) was 0.33 µM, the GI50 (SR leukemia) was 0.0317 µM and the TGI (SR leukemia) was 0.136 µM. The GI50 (COLO 205 colon) was 0.158 µM, the TGI (COLO 205 colon) was 0.319 µM and the GI50 (UACC-62 melanoma) was 0.112 µM. For the same compound, the TGI (UACC-62 melanoma) was 0.256 µM, the GI50 (T-47D breast) was 0.136 µM and the TGI (T-47D breast) was 0.3 µM. For the same compound, the GI50 (SF-268 CNS) was 0.197 µM, the TGI (SF-268 CNS) was 0.604 µM and the GI50 (MDA-MB-435 melanoma) was 0.201 µM. It also gave a TGI (MDA-MB-435 melanoma) of 0.401 µM, a GI50 (SNB-75 CNS) of 0.31 µM and a TGI (SNB-75 CNS) of 2.82 µM. The GI50 (PC-3 prostate) was 0.165 µM, the TGI (PC-3 prostate) was 0.439 µM and the GI50 (SF-539 CNS) was 0.285 µM. It also gave a TGI (SF-539 CNS) of 2.1 µM, a GI50 (NCI/ADR-RES ovarian) of 0.387 µM and a TGI (NCI/ADR-RES ovarian) of 1.84 µM. The GI50 (MDA-MB-468 breast) was 0.13 µM, the TGI (MDA-MB-468 breast) was 0.457 µM and the GI50 (HL-60(TB) leukemia) was 0.0569 µM. The TGI (HL-60(TB) leukemia) was 0.148 µM, the GI50 (IGROV1 ovarian) was 0.111 µM and the TGI (IGROV1 ovarian) was 0.324 µM.
